IC50 and melting point data for eight molecules are collected here from patent publication US6534655B1, “Indeno[1,2-C]pyrazole derivatives for inhibiting tyrosine kinase activity” (BASF Aktiengesellschaft, priority 1997, dated 2003).

Each structure is given as a SMILES string.

One data set deals with T1, KDR tyrosine kinase (Homo sapiens, UniProt P35968).
T1 construct: poly-His6 (N); made in house; host or cells: SF-9 insect cells (recombinant baculovirus, pVL1393)
The data set is described as follows: KDR in vitro ELISA (tyrosine kinase activity). The class given is biochemical. The note with it: ATP 5 μM, 5% DMSO, poly(Glu,Tyr) 4:1 substrate. An excerpt:
The coding sequence for the KDR intra-cellular domain (aa789-1354) was generated through PCR using cDNAs isolated from HUVEC cells. A poly-His6 sequence was introduced at the N-terminus of this protein as well. This fragment was cloned into transfection vector pVL1393 at the Xba 1 and Not 1 site. Recombinant baculovirus (BV) was generated through co-transfection using the BaculoGold Transfection reagent (PharMingen). Recombinant BV was plaque purified and verified through Western analysis. For protein production, SF-9 cells were grown in SF-900-II medium at 2×10^6/ml, and were infected at 0.5 plaque forming units per cell (MOI). Cells were harvested at 48 hours post infection.
SF-9 cells expressing (His)6KDR(aa789-1354) were lysed by adding 50 ml of Triton X-100 lysis buffer (20 mM Tris, pH 8.0, 137 mM NaCl, 10% glycerol, 1% Triton X-100, 1 mM PMSF, 10 μg/ml aprotinin, 1 μg/ml leupeptin) to the cell pellet from 1 L of cell culture. The lysate was centrifuged at 19,000 rpm in a Sorval SS-34 rotor for 30 min at 4° C. The cell lysate was applied to a 5 ml NiCl2 chelating sepharose column, equilibrated with 50 mM HEPES, pH7.5, 0.3 M NaCl. KDR was eluted using the same buffer containing 0.25 M imidazole. Column fractions were analyzed using SDS-PAGE and an ELISA assay (below) which measures kinase activity. The purified KDR was exchanged into 25 mM HEPES, pH7.5, 25 mM NaCl, 5 mM DTT buffer and stored at −80° C.
The disclosed protocol can be adapted for determining activity with respect to a specific RTK. For example, preferred protocols for conducting the ELISA experiments for KDR is provided below. Adaptation of these protocols for determining a compound's activity for other members of the RTK family, as well as non-receptor tyrosine kinases, are well within the abilities of those in the art. […]
Stop with 1M Phosphoric acid. Shake on plate reader.
Read OD immediately at 450 nm
Optimal incubation times and enzyme reaction conditions vary slightly with enzyme preparations and are determined empirically for each lot.
(In general: ELISA stands for enzyme-linked immunosorbent assay.)

The target in another data set is T2, KDR (Homo sapiens, UniProt P35968).
T2 construct: HUVEC cells (from pooled donors) were purchased from Clonetics (San Diego, Calif.) and cultured according to the manufacturer directions; host or cells: HUVEC (pooled donors, passages 3-8)
The data set is described as follows: VEGF-induced KDR phosphorylation in HUVEC measured by Western blots. Format: cell-based. The note with it: VEGF(165) 50 ng/ml, Western blot, read-out: cellular IC50 (VEGF-induced KDR phosphorylation). On the procedure:
A. VEGF-Induced KDR Phosphorylation in Human Umbilical Vein Cells (HUVEC) as Measured by Western Blots.
1. HUVEC cells (from pooled donors) were purchased from Clonetics (San Diego, Calif.) and cultured according to the manufacturer directions. Only early passages (3-8) were used for this assay. Cells were cultured in 100 mm dishes (Falcon for tissue culture; Becton Dickinson; Plymouth, England) using complete EBM media (Clonetics).
2. For evaluating a compound's inhibitory activity, cells were trypsinized and seeded at 0.5-1.0×10^5 cells/well in each well of 6-well cluster plates (Costar; Cambridge, Mass.).
3. 3-4 days after seeding, plates were 90-100% confluent. Medium was removed from all the wells, cells were rinsed with 5-10 ml of PBS and incubated 18-24 h with 5 ml of EBM base media with no supplements added (i.e., serum starvation).
4. Serial dilutions of inhibitors were added in 1 ml of EBM media (25 uM, 5 uM, or 1 uM final concentration) to cells and incubated for one hour at 37° C. Human recombinant VEGF(165) (R&D Systems) was then added to all the wells in 2 ml of EBM medium at a final concentration of 50 ng/ml and incubated at 37° C. for 10 minutes. Control cells untreated or treated with VEGF only were used to assess background phosphorylation and induction by VEGF.
5. […]
Background: A western blot detects proteins with antibodies after separation by electrophoresis.

For data set [1], the system named is Human umbilical vein endothelial cells (HUVEC). Description: HUVEC mitogenesis assay (tritiated thymidine incorporation). The class given is cell-based. The following applies: mitogenesis induced by VEGF, FGF or Complete Media (stimulus not given). Here is the method: B. HUVEC Mitogenesis Assay
Human umbilical vein endothelial cells (HUVEC) were cultured in EGM-Complete Media (endothelial growth media supplemented with 10% FBS, hydrocortisone, epidermal growth factor and bovine brain extract as per the supplier's directions). Cells, media and supplements were purchased from Clonetics (San Diego, Calif.). The HUVEC Mitogenesis Assay was used to measure inhibition of mitogenesis induced by VEGF, FGF or Complete Media. Cells were harvested by trypsinization, washed once and suspended in Complete Media (CM) at a concentration of 5,000 cells/0.15 ml. Cells were seeded into 96-well plates at 5,000 cells/well and incubated at 37° C. for 24 hours. Cells were washed once with serum-free media (SFM) and incubated under serum-free conditions for 24 hours. Non-serum starved control wells were cultured with CM during this period. Test compounds were prepared as 10 mM stock solutions in DMSO, diluted in SFM and added to wells over a concentration range (0.005-50 μM final concentration). Cells were incubated for 1 hour prior to addition of 50 ng/ml VEGF or FGF (R & D Systems, Minneapolis, Minn.). Complete media stimulated wells received the test compound and stimulus simultaneously. […] Plates were harvested onto filter mats with a Tomtec Harvester and counted with a Betaplate liquid scintillation counter (Wallac).
A general note: Uptake of a labelled nucleoside into DNA is a usual measure of proliferation.

T1 sequence (P35968 789-1354): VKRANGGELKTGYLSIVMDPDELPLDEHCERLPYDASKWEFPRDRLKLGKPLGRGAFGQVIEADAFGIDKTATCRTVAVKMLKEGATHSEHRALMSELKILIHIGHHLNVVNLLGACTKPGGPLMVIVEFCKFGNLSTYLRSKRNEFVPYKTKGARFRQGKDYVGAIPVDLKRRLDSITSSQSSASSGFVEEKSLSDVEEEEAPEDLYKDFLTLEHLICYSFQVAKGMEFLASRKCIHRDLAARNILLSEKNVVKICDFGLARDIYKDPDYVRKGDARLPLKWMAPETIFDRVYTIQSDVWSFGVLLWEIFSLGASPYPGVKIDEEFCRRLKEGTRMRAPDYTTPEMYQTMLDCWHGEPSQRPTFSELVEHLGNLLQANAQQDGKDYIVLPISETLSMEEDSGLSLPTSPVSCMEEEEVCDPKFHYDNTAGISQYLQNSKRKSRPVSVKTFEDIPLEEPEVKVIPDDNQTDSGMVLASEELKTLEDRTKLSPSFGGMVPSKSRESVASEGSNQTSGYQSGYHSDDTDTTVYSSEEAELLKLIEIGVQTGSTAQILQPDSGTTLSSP
T2 sequence (P35968 20-1356): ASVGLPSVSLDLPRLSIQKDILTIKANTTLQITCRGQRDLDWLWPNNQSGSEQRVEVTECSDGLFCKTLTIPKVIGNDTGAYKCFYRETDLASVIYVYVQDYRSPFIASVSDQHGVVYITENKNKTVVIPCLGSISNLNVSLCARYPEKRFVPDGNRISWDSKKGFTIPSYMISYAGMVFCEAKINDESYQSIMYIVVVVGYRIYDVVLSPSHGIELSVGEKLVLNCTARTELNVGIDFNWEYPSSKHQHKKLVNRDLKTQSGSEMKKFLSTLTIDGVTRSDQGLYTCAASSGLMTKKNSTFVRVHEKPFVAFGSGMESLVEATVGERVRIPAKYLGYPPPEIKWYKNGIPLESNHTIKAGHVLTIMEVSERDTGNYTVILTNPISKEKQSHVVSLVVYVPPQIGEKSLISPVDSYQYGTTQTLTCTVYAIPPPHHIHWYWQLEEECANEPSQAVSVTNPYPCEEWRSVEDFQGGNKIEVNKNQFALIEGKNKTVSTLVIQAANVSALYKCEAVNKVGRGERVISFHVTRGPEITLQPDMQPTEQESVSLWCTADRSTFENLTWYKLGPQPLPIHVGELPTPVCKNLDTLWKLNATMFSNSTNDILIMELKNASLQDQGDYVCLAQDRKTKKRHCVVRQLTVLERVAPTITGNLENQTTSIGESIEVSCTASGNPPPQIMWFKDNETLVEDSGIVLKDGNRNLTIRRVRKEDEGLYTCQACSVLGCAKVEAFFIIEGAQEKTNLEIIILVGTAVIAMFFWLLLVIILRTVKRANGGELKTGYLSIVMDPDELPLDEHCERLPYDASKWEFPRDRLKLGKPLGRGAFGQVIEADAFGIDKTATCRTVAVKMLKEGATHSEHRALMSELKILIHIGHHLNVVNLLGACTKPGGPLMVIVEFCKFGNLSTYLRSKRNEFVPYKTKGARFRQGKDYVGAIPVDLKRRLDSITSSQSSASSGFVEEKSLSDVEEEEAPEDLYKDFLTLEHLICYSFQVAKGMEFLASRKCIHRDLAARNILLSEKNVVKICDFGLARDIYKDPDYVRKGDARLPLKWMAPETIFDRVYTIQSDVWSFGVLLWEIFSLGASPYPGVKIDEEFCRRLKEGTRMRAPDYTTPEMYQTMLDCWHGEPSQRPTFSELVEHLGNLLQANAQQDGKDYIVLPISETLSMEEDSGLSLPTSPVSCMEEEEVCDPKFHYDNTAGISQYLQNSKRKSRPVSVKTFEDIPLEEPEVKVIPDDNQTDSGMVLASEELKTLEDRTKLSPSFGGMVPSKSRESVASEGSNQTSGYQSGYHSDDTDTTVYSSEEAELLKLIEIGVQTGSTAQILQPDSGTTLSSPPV

Usually IC50 stands for the concentration that gives 50% inhibition. For `Cc1c2c(nn1-c1ccccc1)-c1ccccc1C2=O`, at KDR tyrosine kinase, the 50% inhibitory concentration (IC50) is > 100 µM.

As to `C1=NC(n2nc(-c3ccccc3)cc2-c2ccccc2)NC1` (stereo not shown), the IC50 against KDR tyrosine kinase was > 100 µM.

For the molecule `O=C1c2ccccc2-c2[nH]nc(-c3ccccc3)c21` [3-phenylindeno[1,2-c]pyrazol-4(1H)-one], the values for the IC50 (at KDR; on KDR tyrosine kinase; in data set [1]) were 3 µM, 0.15 µM and < 0.1 µM, respectively.

Broadly, the melting point is the temperature of the solid-liquid transition. In turn, `COc1cc(-c2n[nH]c3c2C(=O)c2ccccc2-3)cc(OC)c1OC` [Example 2, 3-(3,4,5-Trimethoxyphenyl)indeno[1,2-c]pyrazol-4(1H)-one] came in with a melting point of 268 to 272 °C.

On to `O=C1c2ccccc2-c2[nH]nc(-c3ccc(Cl)cc3)c21` [Example 3, 3-(4-chlorophenyl)indeno[1,2-c]pyrazol-4(1H)-one], for which the melting point was > 330 °C.

On to `CN1NC(c2ccccc2)C2=C1c1ccccc1C2=O` (stereo not shown) [Example 5, 1-methyl-3-phenylindeno[1,2-c]pyrazol-4(2H)-one], for which the melting point is 187 to 188 °C.

Molecule `COc1ccc(-c2n[nH]c3c2C(O)c2ccccc2-3)cc1OC` (stereo not shown) [Example 6, 3-(3,4-dimethoxyphenyl)-1,4-dihydroindeno[1,2-c]pyrazol-4-ol] displayed a melting point of 197 to 199 °C.

`OC1c2ccccc2-c2[nH]nc(-c3ccccc3)c21` (stereo not shown) [Example 7, 3-phenyl-1,4-dihydroindeno[1,2-c]pyrazol-4-ol]: the melting point lay within 269 to 272 °C.
